Experimental findings from patent publication US20120196824A1, “THERAPEUTIC AGENT FOR CEREBRAL INFARCTION” (MITSUBISHI TANABE PHARMA CORPORATION, priority 2009, published 2012) are described below.

pIC50: −log10 of the molar value. Where a name gives a salt, the structure may show the parent alone.

Test [1] concerns the target T1, Human-recombinant-S-Adenosyl-L-Homocysteine Hydrolase (Homo sapiens, UniProt P23526).
T1 construct: purchased Diazyme Laboratories
Put plainly: Measurement of enzyme inhibitory activity (hydrolysis of S-Adenosyl-L-Homocysteine, HPLC). It counts as biochemical. To be noted: S-Adenosyl-L-Homocysteine 10 μM, pH 7.2, 37° C., 15 min. Here is the method: The enzyme inhibitory activity of the compounds of the Examples was measured using the hydrolysis activity of S-Adenosyl-L-Homocysteine as an index. The measurement method was modification of the method of Henry H. Richards et al. (J. Biol. Chem. 253, 4476-4480, 1978). That is, S-Adenosyl-L-Homocysteine (10 μM) and Adenosine Deaminase (Roche) (4 units) were added to 50 mM phosphate buffer (pH 7.2, containing 1 mM EDTA) with the total amount being 200 μl, and to the solution were added a test substance and then Human-recombinant-S-Adenosyl-L-Homocysteine Hydrolase (50 ng, Diazyme Laboratories) to start the reaction, and the mixture was incubated at 37° C. for 15 min. The reaction was quenched by the addition of 1N aqueous perchloric solution (20 μl), and the mixture was centrifuged under the conditions of 10000 rpm, 5 min, 4° C. The supernatant was collected, and the amount of S-Adenosyl-L-Homocysteine after the reaction was quantified by HPLC. The column used was a reversed-phase column. The detailed conditions of HPLC were as follows.
column used: Wakopak^R HandyODS 150*4.6 mm (Wako Pure Chemical Industries, Ltd.) elution condition: 1.0 ml/min elution solvent: 0.1M acetate buffer (pH 4.0) containing 10 mM 1-heptanesulfonic acid containing 4% acetonitrile wavelength: 258 nm (UV) The inhibitory rate was determined with the amount of decrease in S-Adenosyl-L-Homocysteine before and after the reaction without using the test substance as 100%.
Inhibitory rate (%)={(amount of decrease of S-Adenosyl-L-Homocysteine in the presence of test substance)/(amount of decrease of S-Adenosyl-L-Homocysteine in the absence of test substance)}×100

In test [2] the test system is homocysteine synthesis. Put plainly: Measurement of homocysteine synthesis inhibitory activity in vivo (methionine-loaded mouse, plasma homocysteine). Particulars: dose of 10 mg/kg, oral, BALB/c mouse; methionine water 1 hr later; plasma 30 min after; read-out: activity (homocysteine synthesis inhibitory rate). Here is the method:
A sample was orally administered to BALB/c mouse and, 1 hr later, methionine water (50 g/L) was orally administered at a proportion of 10 ml/kg. 30 min later, blood samples were collected with heparin from the abdominal vein and plasma was obtained. The plasma homocysteine concentration was measured by treating the plasma with tributylphosphine, removing protein with 10% trichloroacetic acid (TCA), fluorescent labeling the supernatant with 4-fluoro-7-sulfobenzofurazan ammonium salt (SBD-F) under alkali conditions, and quantifying by HPLC. The homocysteine synthesis inhibitory rate of the sample was determined with the difference in the homocysteine value between methionine water-loaded animal and methionine water-unloaded animal as 100%. The detailed conditions of HPLC were as follows.
column used: Wakopak^R HandyODS 150*4.6 mm (Wako Pure Chemical Industries, Ltd.) elution condition: 1.0 ml/min elution solvent: 0.1M phosphate buffer (pH 6.0) 2% methanol wavelength: ex 385 nm em 515 nm

Test [3] concerns Mouse Ischemic Stroke Model. Briefly: Infarct volume suppressive and motor function improving effects in mouse ischemic stroke model (Rose Bengal photothrombosis, TTC staining, Rota-rod). It counts as in vivo. To be noted: dose of 10 mg/kg. Here is the method: Mouse was fixed under isoflurane anesthesia and the scalp was incised. Rose Bengal (7.5 mg/kg) was administered i.v., and green light (550 nm, Hamamatsu Photonics, K.K.) was immediately irradiated at 2 mm side and 1 mm above the bregma for 5 min. Thereafter, the scalp was bonded with an instant glue. To the test drug and control groups was given the first administration after the mice awoke, and they were subjected to the administration again the next day. Two days later, motor function was evaluated by Rota-rod (up to 60 sec, walking time on Rota-Rod was measured). Then the brain was removed, sliced in 1 mm, the site of infaction was decided by 1% TTC staining and the volume was measured by image analysis. The infarct volume suppression rate (%) and walking time (%) on Rota-Rod with Vehicle 100% at the dose of 10 mg/kg are shown in the following Table. In addition, walking time (sec) on Rota-Rod and infarct volume suppression rate (mm^3) when 3-deazaadenosine was used as a test drug are shown in FIG. 1 and FIG. 2.
(In the rotarod test animals must keep their balance on a rotating rod.)

T1 sequence (P23526 whole entry): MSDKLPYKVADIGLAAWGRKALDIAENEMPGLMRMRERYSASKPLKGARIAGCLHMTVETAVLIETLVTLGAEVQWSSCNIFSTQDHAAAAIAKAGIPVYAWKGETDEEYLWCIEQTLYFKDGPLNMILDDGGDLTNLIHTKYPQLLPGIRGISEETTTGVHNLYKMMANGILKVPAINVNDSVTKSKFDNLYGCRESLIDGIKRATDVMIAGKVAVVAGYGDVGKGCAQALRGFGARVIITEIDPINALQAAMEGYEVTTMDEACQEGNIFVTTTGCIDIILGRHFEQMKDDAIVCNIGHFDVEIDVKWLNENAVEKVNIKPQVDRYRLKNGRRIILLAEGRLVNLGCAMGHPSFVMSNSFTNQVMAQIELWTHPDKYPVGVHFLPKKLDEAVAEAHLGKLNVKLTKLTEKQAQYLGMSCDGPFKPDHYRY

As to `CCNCCNC(=O)CN(CC(=O)N(C)N1Cc2ccccc2C1)c1cc2cnn(C)c2cc1C` [Example 241, N^2-{2-[1,3-dihydro-2H-isoindol-2-yl(methyl)amino]-2-oxoethyl}-N^2-(1,6-dimethyl-1H-indazol-5-yl)-N^1-[2-(ethylamino)ethyl]glycinamide hydrochloride], the pIC50 in test [1] is 8.05. In test [2], the inhibition in vivo at 10 mg/kg is not below 40%.

Turning to `CCN1C(=O)CCc2cc(N(CC(=O)NCCNC(C)C)CC(=O)N(C)N3Cc4ccccc4C3)c(C)cc21` [Example 176, N^2-{2-[1,3-dihydro-2H-isoindol-2-yl(methyl)amino]-2-oxoethyl}-N^2-(1-ethyl-7-methyl-2-oxo-1,2,3,4-tetrahydroquinolin-6-yl)-N^1-[2-(isopropylamino)ethyl]glycinamide], the pIC50 in test [1] is 7.20. Also, the inhibition in vivo at 10 mg/kg in test [2] was not below 40%.

With `Cc1nc(-c2ccc(C)c(N(CC(=O)NCCNC(C)C)CC(=O)N(C)N3Cc4ccc(F)cc4C3)c2)no1` [Example 21, N^2-{2-[(5-fluoro-1,3-dihydro-2H-isoindol-2-yl)(methyl)amino]-2-oxoethyl}-N^2-[2-methyl-5-(5-methyl-1,2,4-oxadiazol-3-yl)phenyl]-N^1-[2-(isopropylamino)ethyl]glycinamide], in test [1], the pIC50 is 7.05. Moreover, in test [2], the inhibition in vivo at 10 mg/kg is not below 40%.

For the compound `CCNCCNC(=O)CN(CC(=O)N(C)N1Cc2ccccc2C1)c1cc(-c2nn(CC)c(=O)o2)ccc1C` [Example 92, N^2-{2-[1,3-dihydro-2H-isoindol-2-yl(methyl)amino]-2-oxoethyl}-N^2-[5-(4-ethyl-5-oxo-4,5-dihydro-1,3,4-oxadiazol-2-yl)-2-methylphenyl]-N^1-[2-(ethylamino)ethyl]glycinamide], in test [1], the pIC50 was 7.32. The inhibition in vivo at 10 mg/kg in test [2] was not below 40%.

`CCNCCNC(=O)CN(CC(=O)N(C)N1Cc2ccc(OC)cc2C1)c1cc(-c2noc(C)n2)ccc1C` [Example 24, N^2-{2-[(5-methoxy-1,3-dihydro-2H-isoindol-2-yl)(methyl)amino]-2-oxoethyl}-N^2-[2-methyl-5-(5-methyl-1,2,4-oxadiazol-3-yl)phenyl]-N^1-[2-(ethylamino)ethyl]glycinamide]: the pIC50 in test [1] was 7.34. Besides, in test [2], the inhibition in vivo at 10 mg/kg is 20 to 40%.

Take `Cc1cc2c(C)noc2cc1N(CC(=O)NCCNC(C)C)CC(=O)N(C)N1Cc2ccccc2C1` [Example 184, N^2-{2-[1,3-dihydro-2H-isoindol-2-yl(methyl)amino]-2-oxoethyl}-N^2-(3,5-dimethyl-1,2-benzisoxazol-6-yl)-N^1-[2-(isopropylamino)ethyl]glycinamide]: the pIC50 in test [1] was 7.43. Moreover, the inhibition in vivo at 10 mg/kg in test [2] is not below 40%.

In the case of `CCNCCNC(=O)CN(CC(=O)N(C)N1Cc2ccccc2C1)c1cc(-c2nn(C)c(=O)o2)ccc1C` [Example 89, N^2-{2-[1,3-dihydro-2H-isoindol-2-yl(methyl)amino]-2-oxoethyl}-N^2-[2-methyl-5-(4-methyl-5-oxo-4,5-dihydro-1,3,4-oxadiazol-2-yl)phenyl]-N^1-[2-(ethylamino)ethyl]glycinamide], in test [1], the pIC50 was 7.28. For the same compound, the inhibition in vivo at 10 mg/kg in test [2] lay in the range of 20 to 40%.

In the case of `Cc1ccc(C#N)cc1N(CC(=O)NCCNC(C)C)CC(=O)N(C)N1Cc2ccccc2C1` [Example 1, N^2-(5-cyano-2-methylphenyl)-N^2-{2-[1,3-dihydro-2H-isoindol-2-yl(methyl)amino]-2-oxoethyl}-N^1-[2-(isopropylamino)ethyl]glycinamide dihydrochloride], the pIC50 in test [1] is 7.17. In test [2], the inhibition in vivo at 10 mg/kg is not below 40%.

Take `CCNCCNC(=O)CN(CC(=O)N(C)N1Cc2ccc(F)cc2C1)c1cc(-c2noc(CO)n2)ccc1C` [Example 292, N^2-{2-[(5-fluoro-1,3-dihydro-2H-isoindol-2-yl)(methyl)amino]-2-oxoethyl}-N^2-{5-[5-(hydroxymethyl)-1,2,4-oxadiazol-3-yl]-2-methylphenyl}-N^1-[2-(ethylamino)ethyl]glycinamide hydrochloride]: in test [2], the inhibition in vivo at 10 mg/kg was 20 to 40%.

For `Cc1nc(-c2ccc(N(CC(=O)NCCNC(C)C)CC(=O)N(C)N3Cc4ccccc4C3)c(C)c2)no1` [Example 64, N^2-{2-[1,3-dihydro-2H-isoindol-2-yl(methyl)amino]-2-oxoethyl}-N^2-[2-methyl-4-(5-methyl-1,2,4-oxadiazol-3-yl)phenyl]-N^1-[2-(isopropylamino)ethyl]glycinamide], the pIC50 in test [1] was 6.99. Besides, the inhibition in vivo at 10 mg/kg in test [2] is not below 40%.

In the case of `CCNCCNC(=O)CN(CC(=O)N(C)N1Cc2ccc(F)cc2C1)c1cc2cn(C)nc2cc1C` [Example 245, N^2-(2,6-dimethyl-2H-indazol-5-yl)-N^2-{2-[(5-fluoro-1,3-dihydro-2H-isoindol-2-yl)(methyl)amino]-2-oxoethyl}-N^1-[2-(ethylamino)ethyl]glycinamide hydrochloride], in test [2], the inhibition in vivo at 10 mg/kg lay in the range of 20 to 40%.

For `Cc1ccc(-c2nn(C)c(=O)o2)cc1N(CC(=O)NCCNC(C)C)CC(=O)N(C)N1Cc2ccccc2C1` [Example 88, N^2-{2-[1,3-dihydro-2H-isoindol-2-yl(methyl)amino]-2-oxoethyl}-N^2-[2-methyl-5-(4-methyl-5-oxo-4,5-dihydro-1,3,4-oxadiazol-2-yl)phenyl]-N^1-[2-(isopropylamino)ethyl]glycinamide], in test [1], the pIC50 was 7.37. Besides, the inhibition in vivo at 10 mg/kg in test [2] was 20 to 40%.

For the compound `CCNCCNC(=O)CN(CC(=O)N(C)N1Cc2ccccc2C1)c1ccc(-c2nc(C(=O)N(C)C)cs2)cc1C` [Example 304, N^2-{2-[1,3-dihydro-2H-isoindol-2-yl(methyl)amino]-2-oxoethyl}-N^2-[4-{4-[(dimethylamino)carbonyl]-1,3-thiazol-2-yl}-2-methylphenyl]-N^1-[2-(ethylamino)ethyl]glycinamide dihydrochloride], the inhibition in vivo at 10 mg/kg in test [2] was not below 40%.

In the case of `CCNCCNC(=O)CN(CC(=O)N(C)N1Cc2ccccc2C1)c1ccc(-c2nc(C)no2)cc1C` [Example 229, N^2-{2-[1,3-dihydro-2H-isoindol-2-yl(methyl)amino]-2-oxoethyl}-N^2-[2-methyl-4-(3-methyl-1,2,4-oxadiazol-5-yl)phenyl]-N^1-[2-(ethylamino)ethyl]glycinamide], in test [1], the pIC50 was 7.46. The inhibition in vivo at 10 mg/kg in test [2] is not below 40%.

For the compound `CCNCCNC(=O)CN(CC(=O)N(C)N1Cc2ccccc2C1)c1cc(C#N)ccc1C` [Example 2, N^2-(5-cyano-2-methylphenyl)-N^2-{2-[1,3-dihydro-2H-isoindol-2-yl(methyl)amino]-2-oxoethyl}-N^1-[2-(ethylamino)ethyl]glycinamide dihydrochloride], the negative-log IC50 (pIC50) in test [1] was 7.04. Besides, in test [2], the inhibition in vivo at 10 mg/kg was not below 40%.

In the case of `Nc1nccc2c1ncn2[C@@H]1O[C@H](CO)[C@@H](O)[C@H]1O` [3-deazaadenosine, reference compound], in test [3] (two administrations, measured two days later, TTC staining), the “infarct volume suppression rate (%)” value came to 14%. Further, the “walking time (%)” value in test [3] (walking time on Rota-Rod with Vehicle 100%, two days later) turned out to be 170%.

Regarding `CCNCCNC(=O)CN(CC(=O)N(C)N1Cc2ccccc2C1)c1cc2onc(C)c2cc1C` [Example 185, N^2-{2-[1,3-dihydro-2H-isoindol-2-yl(methyl)amino]-2-oxoethyl}-N^2-(3,5-dimethyl-1,2-benzisoxazol-6-yl)-N^1-[2-(ethylamino)ethyl]glycinamide], the negative logarithm of the IC50 (pIC50) in test [1] is 8.10. The inhibition in vivo at 10 mg/kg in test [2] was not below 40%.

Usually pIC50 stands for the negative decadic logarithm of the IC50, by convention in mol/L.
